Data reported in patent US5296494A, “Pyrrolidine compounds having thromboxane A2 receptor antagonistic activity and thromboxane A2 synthase inhibiting activity” (Adir et Compagnie, priority 1991, dated 1994).
Counter-ions that a name gives are not always drawn.

Legend:
[1] = target: T1, guinea pig trachea (Cavia porcellus, UniProt A0A286Y4I8); test: Determination of the pA2 values on guinea pig trachea (U46619-induced contraction); assay type: cell-based; conditions: isolated guinea pig trachea rings, 37° C., agonist U46619, antagonist contact 20 minutes
T1 construct: the trachea is rapidly removed and then cut into two-cartilage rings; from tissue; host or cells: guinea pig trachea, two-cartilage rings (isolated organ)
T1 sequence (A0A286Y4I8 1-347): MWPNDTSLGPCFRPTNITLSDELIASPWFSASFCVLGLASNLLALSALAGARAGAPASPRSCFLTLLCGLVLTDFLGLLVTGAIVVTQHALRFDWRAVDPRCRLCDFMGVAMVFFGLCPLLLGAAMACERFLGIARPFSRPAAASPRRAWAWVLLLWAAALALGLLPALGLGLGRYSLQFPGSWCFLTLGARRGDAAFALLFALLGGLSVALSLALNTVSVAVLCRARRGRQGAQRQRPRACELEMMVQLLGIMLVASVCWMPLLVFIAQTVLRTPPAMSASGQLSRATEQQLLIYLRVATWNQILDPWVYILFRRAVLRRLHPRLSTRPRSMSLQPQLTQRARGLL
Description: Determination of the pA2 values on guinea pig trachea
Male albino guinea pigs weighing 400-500 grams were sacrificed by a blow to the back of the neck and by cervical elongation. The throat is opened and the trachea is rapidly removed and then cut into two-cartilage rings. These rings are mounted between two hooks in cells thermostated at 37° C. containing physiological fluid (composition in mM:NaCl 118; NaHCO3 25; glucose 10; KCl 4.7; CaCl2 1.25; MgSO4 1.19; KH2 PO4 1.14).
A 95% O2 /5% CO2 mixture is bubbled through the physiological solution. The lower hook constitutes the fixed point while the upper hook is connected to an isometric strength gage. The tissues are placed under a baseline tension of 3.5 grams. The test pharmacological substances are prepared immediately before use. The drugs are solubilized in water or in dimethyl sulfoxide.
After mounting, the preparations are left standing for 90 minutes, rinses being performed every 30 minutes. After readjustment of the baseline tension, a contraction produced by a single dose of agonist (U46619; 10^-5 M) is produced in order to make the following contractions consist. After washing and return to the baseline, a first effect/concentration curve is established by adding cumulative doses of U46619 (10^-9 M to 10^-5 M, with semi-log spacing between the doses). This first experiment enables the "control" 50% effective concentration (EC50) to be calculated.
This EC50 is routinely calculated in the following manner: the tension values are first converted to percentages relative to the maximum effect, these percentages then being plotted on a graph with the percentages as ordinates and the log (concentration) values as abscissae. A linear regression is then carried out on the points lying between 10% and 90% (which corresponds to the linear portion of the sigmoid curve). The concentration corresponding to half the maximum effect (50%) may be readily calculated using the parameters of the linear plot.
After washing and return to the baseline, the organ is brought into contact with the antagonist ([…]) for 20 minutes. A second effect/concentration curve is then established in the presence of the antagonist, and the "treated" EC50 can then be calculated. All the elements enabling the pA2 (competitive antagonism) or pD2 (non-competitive antagonism) to be calculated are thereby obtained.
The pA2 (which represents the negative logarithm of the antagonist concentration in the presence of which twice as much agonist is required in order to obtain the same effect) is determined by plotting on a graph the values of log ((L/1)-1) with respect to log (antagonist concentration), where L=effect in presence of antagonist and 1=control effect.

[2] = target: T2, thromboxane synthase (Oryctolagus cuniculus, UniProt G1TAZ9); test: Anti-thromboxane synthase activity (TXB2 levels in serum of rabbit blood, radio immunoassay); assay type: cell-based; conditions: 37° C., one hour, serum TXB2 by radio immunoassay, read-out: IC50, inhibition of TXB2 level
T2 construct: from tissue; host or cells: rabbit whole blood (clotting; by own knowledge the enzyme is chiefly that of platelets)
T2 sequence (G1TAZ9 1-530): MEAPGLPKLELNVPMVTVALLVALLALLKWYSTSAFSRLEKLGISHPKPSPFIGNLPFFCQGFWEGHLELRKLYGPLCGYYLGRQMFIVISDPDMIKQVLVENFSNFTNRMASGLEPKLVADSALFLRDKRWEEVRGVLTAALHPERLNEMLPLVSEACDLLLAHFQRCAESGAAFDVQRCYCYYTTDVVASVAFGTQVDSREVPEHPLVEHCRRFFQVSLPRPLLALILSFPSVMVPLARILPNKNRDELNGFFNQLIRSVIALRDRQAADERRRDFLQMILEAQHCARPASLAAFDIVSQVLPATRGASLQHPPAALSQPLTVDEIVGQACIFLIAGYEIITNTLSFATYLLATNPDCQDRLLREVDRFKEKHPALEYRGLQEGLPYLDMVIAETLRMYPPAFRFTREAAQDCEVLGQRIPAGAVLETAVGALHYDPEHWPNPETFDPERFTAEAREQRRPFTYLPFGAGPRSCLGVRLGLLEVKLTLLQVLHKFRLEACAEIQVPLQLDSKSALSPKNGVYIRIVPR
Description: Anti-thromboxane synthase activity
Albino New Zealand rabbits weighing approximately 2 kg are used. These rabbits are anesthetized with pentobarbital (30 mg/kg i.v.). Blood is collected via carotid catheter in dry glass tubes, in the proportion of 1 ml per tube, in the presence or absence of different concentrations of inhibitor. The inhibitors are diluted in physiological fluid in order to avoid possible hemolysis.
The tubes are placed in a water bath at 37° C. for one hour. After coagulation, the tubes are cooled to 4° C. and centrifuged at 2000 g for 20 minutes in order to separate the serum from the clot. The serum may be frozen at -20° C. for 2 weeks for a subsequent assay.
The levels of TXB2, the stable metabolite of TXA2, in the serum are determined by radio immunoassay.
The levels obtained in the presence of the different doses of inhibitor are converted to a percentage inhibition relative to the baseline level of TXB2, in order to calculate the IC50 of the inhibitor. The latter is obtained by non-linear regression using the following equation (Michaelis L, Menten ML, Die Kinetik der Invertinwirkung, Biochem. Zeitschrifft, 1913, 49, 333-369):
I=(Imax * C^n) / (IC^n +C^n)
C=inhibitor concentration

[3] = test system: thromboxane receptor (increase in tracheal pressure caused by U46619); test: IC50 on tracheal pressure in guinea pigs (U46619-induced bronchoconstriction); assay type: in vivo, guinea pig; conditions: anesthetized guinea pigs, antagonist injected 5 minutes before U46619 (2 μg/kg i.v.); for ED50: Cavia porcellus, iv, 5 min, read-out: IC50, dose of antagonist that inhibits by 50% the increase in tracheal pressure caused by U46619
Source text: IC50 on tracheal pressure in guinea pigs
Male albino guinea pigs (350-400 g) subjected to an 18-hour water diet are anesthetized with ethyl carbamate (1.25 g/kg i.p.). A catheter is introduced into the carotid artery in order to measure the arterial blood pressure by means of a pressure cell. A second catheter is introduced into the jugular vein and is used to inject the pharmacological substances. The trachea is cannulated and the guinea pig is placed in assisted respiration by means of a respirator. The animal's temperature is maintained at 37° C. using a thermostated blanket. A needle pushed into the tracheal cannula is connected to a pressure cell and enables the tracheal pressure to be recorded.
The guinea pigs are pretreated with d-tubocurarine (1 mg/kg i.v.) and with indomethacin (10 mg/kg i.v.). Injected at a dose of 2 μg/kg i.v., U46619 produces a bronchoconstriction which leads to an increase in tracheal pressure and induces an increase in arterial blood pressure. The responses to U46619 are reversible and reproducible if the injections are carried out every 10 minutes.
The thromboxane receptor antagonists are injected 5 minutes before the injections of U46619. The dose of antagonist that inhibits by 50% the increase in tracheal pressure caused by U46619 is determined (IC50).

[4] = test system: platelet aggregation response induced by U46619 (TXA2 receptor agonist); test: Platelet aggregation: inhibition of U46619-induced aggregation of rabbit platelet-rich plasma; assay type: cell-based; conditions: Oryctolagus cuniculus, rabbit PRP, 37° C., antagonist 3 min before U46619 (1.2 μM), read-out: IC50, concentration inducing 50% inhibition of the aggregation response induced by U46619
Description: Rabbits (2-3 kg) are anesthetized with pentobarbital sodium (30 mg/kg i.v.). After cannulation of the left carotid artery, blood is withdrawn onto sodium citrate (0.109M) (1 vol. of citrate per 9 vol. of blood).
Platelet-rich plasma (PRP) is obtained by centrifugation (20° C.) at 250 g for 20 minutes, and platelet- poor plasma (PPP) by centrifugation at 1000 g (10 min). The number of platelets (PL) in the PRP is adjusted to 300-350,000 PL/mm^3 by dilution with autologous PPP. The PRP is stored at the temperature of the room until the time of the test, and is used within 4 hours following withdrawal.
Platelet aggregation is carried out at 37° C. in siliconed glass tubes using an aggregometer. The PRP and PL are stirred at 1000 rpm (revolutions per minute). In order to study the activity of thromboxane antagonists, the PRP is incubated for 1 min at 37° C., and the antagonist is then added for a period of 3 min before addition of the agonist U46619 (1.2 μM). The final volume in the cell is then 250 μl. The intensity of platelet aggregation is established by taking the maximum amplitude of the aggregation plots and is expressed as a percentage light transmission (% T). The activity of the antagonists is expressed as IC50, that is to say the concentration of the substance which induces a 50% inhibition of the aggregation response induced by U46619.

Kb [1] [nM] | IC50 [2] [µM] | IC50, dose of antagonist that inhibits by 50% the increase in tracheal pressure caused by U46619 [3] [mg/kg] | IC50 [4] [µM] | SMILES | ED50 [3] [mg/kg]
63.1 |  |  |  | COc1cccc([C@@H]2[C@H](C/C=C\CCC(=O)O)CCN2S(=O)(=O)c2ccc(F)cc2)c1 (relative stereo) [Example 1, (4Z)-6-[(2α,3α)-1-(4-Fluorophenylsulfonyl)-2-(3-methoxyphenyl)-3-pyrrolidinyl]-4-hexenoic acid sodium salt] | 
7080 |  |  |  | O=C(O)CCCCC[C@@H]1CCN(Cc2cccnc2)[C@@H]1c1ccccc1 (relative stereo) [Example 22, 6-{(2α,3α)-1-[(3-Pyridyl)methyl]-2-phenyl-3-pyrrolidinyl}hexanoic acid sodium salt] | 
 | 60 |  |  | O=C(O)CCCCC[C@@H]1CCN(S(=O)(=O)c2ccc(F)cc2)[C@@H]1c1cccnc1 (relative stereo) [Example 20, 6-[(2α,3α)-1-(4-Fluorophenylsulfonyl)-2-(3-pyridyl)-3-pyrrolidinyl) hexanoic acid sodium salt] | 
 |  | 0.7 |  | O=C([O-])CC/C=C\C[C@@H]1CCN(S(=O)(=O)c2ccc(F)cc2)[C@H]1c1ccccc1.[Na+] [Example 4, (4Z)-6-[(2α,3α)-1-(4-Fluorophenylsulfonyl)-2-phenyl-3-pyrrolidinyl]-4-hexenoic acid sodium salt] | 
39.8 |  |  | 20 | O=C(O)CCC/C=C\C[C@@H]1CCN(S(=O)(=O)c2ccc(F)cc2)[C@@H]1c1cccc(O)c1 (relative stereo) [Example 15, (5Z)-7-[(2α,3α)-1-(4-Fluorophenylsulfonyl)-2-(3-hydroxyphenyl)-3-pyrrolidinyl]-5-heptenoic acid sodium salt] | 0.16
10 |  |  | 20 | O=C(O)CC/C=C\C[C@@H]1CCN(S(=O)(=O)c2ccc(F)cc2)[C@@H]1c1cccc(O)c1 (relative stereo) [Example 14, (4Z)-6-[(2α,3α)-1-(4-Fluorophenylsulfonyl)-2-(3-hydroxyphenyl)-3-pyrrolidinyl]-4-hexenoic acid sodium salt] | 0.07
1.82 | 8.5 |  |  | O=C(O)CC/C=C\C[C@@H]1CCN(Cc2cccnc2)[C@@H]1c1ccccc1 (relative stereo) [Example 21, (4Z)-6-{(2α,3α)-1-[(3-Pyridyl)methyl]-2-phenyl-3-pyrrolidinyl}-4-hexenoic acid sodium salt] | 0.17
 | 200 |  |  | O=C(O)CC/C=C\C[C@@H]1CCN(S(=O)(=O)c2ccc(F)cc2)[C@@H]1c1cccnc1 (relative stereo) [Example 2, (4Z)-6-[(2α,3α)-1-(4-Fluorophenylsulfonyl)-2-(3-pyridyl)-3-pyrrolidinyl]-4-hexenoic acid sodium salt] | 
30.9 |  |  |  | O=C(O)CC/C=C\C[C@@H]1CCN(Cc2cccnc2)[C@@H]1c1cccc(O)c1 (relative stereo) [Example 26, (4Z)-6-{(2α,3α)-1-[(3-Pyridyl)methyl]-2-(3-hydroxyphenyl) -3-pyrrolidinyl}-4-hexenoic acid sodium salt] | 0.03
